# From patent US20240366633A1, “METHODS FOR TREATMENT OF OPIOID USE DISORDER WITH CANNABINOIDS” (ANANDA SCIENTIFIC, INC, priority 2021, published 2024)
# Legend:
# [1] = healthy volunteers and subjects with various medical conditions, 10 mg to 6000 mg, single and multiple doses; cited from earlier work
# CB2 receptors = CB2 receptors (Homo sapiens, UniProt P34972); conditions: cited from earlier work
# [2] = Chemical characteristics of Composition A′, concentrated and diluted forms; assay type: physicochemical
# Method: Several tests were conducted to determine the chemical characteristics of composition Composition A′, both in concentrated and diluted forms. […] All liquid nanodomain droplets range in size from 5 to 20 nm. The pH of both the concentrate and diluted formulations is between 6.0 and 7.5.
# [3] = rat, 120 mg/kg dose; cited from earlier work
# Sequence of CB2 receptors (P34972 whole entry): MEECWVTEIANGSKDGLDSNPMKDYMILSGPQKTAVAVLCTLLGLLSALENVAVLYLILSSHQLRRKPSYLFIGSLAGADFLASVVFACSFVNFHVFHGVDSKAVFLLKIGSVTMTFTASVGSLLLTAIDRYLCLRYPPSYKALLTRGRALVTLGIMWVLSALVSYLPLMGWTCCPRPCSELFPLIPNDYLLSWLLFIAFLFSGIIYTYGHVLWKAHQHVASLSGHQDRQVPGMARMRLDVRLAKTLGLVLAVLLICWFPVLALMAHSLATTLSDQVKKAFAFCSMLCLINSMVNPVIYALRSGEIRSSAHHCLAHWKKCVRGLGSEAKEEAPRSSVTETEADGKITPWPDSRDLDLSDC
smiles,measurement,setting,value
"C=C(C)[C@@H]1CCC(C)=C[C@H]1c1c(O)cc(CCCCC)cc1O [CBD, 2-(1R,6R)-3-methyl-6-prop-1-en-2-ylcyclohex-2-en-1-yl-5-pentylbenzene-1,3-diol]",Safety,[1],safe
same,Affinity for CB2 receptors,CB2 receptors,low affinity
same,Log P,[2],about 6
same,Association of CBD with formulation phases during storage,[2]; both concentrated and diluted forms,remained associated with the surfactant and lipid phases
same,T1/2,[3],4 to 5 h
